According to patent US7767417B2, “Prenyl-electrostatic switch, and methods of use” (New York University, priority 2004, dated 2010):

How the values were obtained:
GFP-K-Ras = assay: Live-cell imaging of GFP-K-Ras translocation from plasma membrane to internal membranes; assay type: cell-based, human; details: for effect of inhibitor pretreatment on stimulated K-Ras translocation: 100 nM Ro 31-8220 or 15 μg/ml W-13, 10 min prior to stimulation with bryostatin-1 or PMA+Iono
Experimental: COS-1, HeLa, and MDCK cells were maintained in 5% CO2 in Dulbecco's Modified Eagle Medium (“DMEM”) supplemented with 4 mM 1-glutamine, 1.5 g/L sodium bicarbonate, 4.5 g/L glucose, and 10% fetal bovine serum (“FBS”) (Cellgro®). MDCK cells stably expressing GFP-K-Ras or GFP-H-Ras were selected in G418 and sorted by FACS to yield cell lines expressing relatively low levels of the fluorescent Ras proteins (1-3 fold endogenous by immunoblots). NIH 3T3 cells were maintained in 10% CO2 in DMEM supplemented with 4 mM 1-glutamine, 1.5 g/L sodium bicarbonate, 4.5 g/L glucose, and 10% calf serum (Colorado Serum Co., Denver, Colo.). Jurkat T cells were maintained in 5% CO2 in RPMI containing 10% FBS. Cells to be examined by fluorescence microscopy were seeded at 2×10^5 per plate into 35 mm dishes containing a glass coverslip-sealed 15 mm cutout (MatTek, Ashland, Mass.) and transfected the next day using Lipofectamine (Invitrogen, Carlsbad, Calif.; NIH 3T3), Lipofectamine 2000 (Invitrogen, Carlsbad, Calif.; COS-1, HeLa, MDCK), or DMRIE (Invitrogen, Carlsbad, Calif.; Jurkat), according to the manufacturers' instructions. To ensure co-transfection of untagged cDNAs and fluorescent constructs, a DNA ratio of at least 5:1 (untagged:fluorescent) was used.
(§1) Cells were stimulated while under continuous observation by adding 100 nM bryostatin-1 (Biomol), 100 nM PMA with or without 500 ng/ml lonomycin, or 5 ng/ml anti-CD3 to 35 mm MatTek plates maintained at 37° C. using a PDMI-2 microincubator (Harvard Apparatus, Holliston, Mass.). Treatment of cells with 100 nM Ro 31-8220 (Biomol, Plymouth Meeting, Pa.) or 15 μg/ml W-13 Hydrochloride (EMD Biosciences, San Diego, Calif.) was initiated 10 min prior to stimulations. Where indicated, 25 pM MitoTracker Red CMXRos (Molecular Probes, Eugene, Oreg.) was added 10 min prior to stimulation. Living cells were imaged with a Zeiss 510 inverted laser scanning confocal microscope (“LSM”). A minimum of five […] Z slices were acquired for each cell at each time point and representative images were chosen to display both plasma membrane and endomembranes. Fluorescence resonance energy transfer (“FRET”) on mitochondria between CFP-K-Ras and YFP-Bcl-XL was detected by bleaching the acceptor (YFP-Bcl-XL) on individual mitochondria and measuring the increase in CFP emission intensity as quenching was released. FRET efficiency was calculated as [ICFP(post-bleach)−ICFP(pre-bleach)]/ICFP(post-bleach). TIFF images were processed with Adobe Photoshop 7.0.

K-Ras12V and Bcl-XL = assay: Colocalization and FRET between K-Ras12V and Bcl-XL on mitochondria; assay type: cell-based, human
Experimental: as §1

[1] = system: K-Ras12V-dependent tumors; assay: Tumor growth assay in nude mice; assay type: in vivo, athymic nude BALB/c mice; details: intraperitoneal 25 μg/kg daily for 3 days
Experimental: NIH 3T3 cells stably transfected as per the soft agar assays were injected (5×10^5 cells) subcutaneously into the flanks of 4-6 week old athymic nude BALB/c mice. After formation of palpable tumors, mice were treated daily for 3 days with intraperitoneal DMSO vehicle or bryostatin-1 (25 μg/kg). Tumor volume was measured daily and differences in growth rates were evaluated for statistical significance by ANOVA.

[2] = system: NIH 3T3 cells stably transfected with K-Ras12V or K-Ras12V181A; assay: Soft agar assay; assay type: cell-based; details: two weeks
Experimental: NIH 3T3 cells stably transfected with pCGN-hyg, or the same vector encoding K-Ras12V or K-Ras12V 181 A were plated as single cell suspensions (2×10^4 cells/35-mm well) in 0.4% agar over a bottom layer of 0.6% agar, both containing DMSO vehicle or various concentrations of bryostatin-1. After two weeks, the percentage of plated cells that formed colonies (>5 cell diameters across) was determined.

[3] = system: NIH3T3 cells transformed with K-Ras12V or K-Ras12V181A; assay: Apoptosis of K-Ras transformed fibroblasts; assay type: cell-based
Text: To confirm that K-Ras12V phosphorylated on S181, like phosphomimetic K-Ras12V181E, is pro-apoptotic, the capacity of PKC agonists to induce apoptosis of K-Ras transformed fibroblasts was examined. […] Thus, the sensitization to PKC-mediated apoptosis afforded by K-Ras transformation can be attributed to phosphorylation at S181.

endogenous Ras = assay: Anti-Ras immunogold electron microscopy of Jurkat T cells; assay type: cell-based
Experimental: Jurkat cells (in suspension) were treated with 100 nM bryostatin-1 or vehicle (dimethyl sulfoxide (“DMSO”)) for 30 minutes at 37° C. and then fixed with 2% formaldehyde and 0.2% glutaraldehyde in 0.1 M sodium phosphate buffer, pH 7.4. After washing in buffer, the cells were pelleted by centrifugation, embedded in 10% gelatin, cooled in ice, and cut into 1-mm^3 blocks in the cold room. The blocks were infused with 2.3 M sucrose at 4° C. for at least 2 hours, frozen in liquid nitrogen, and stored until cryo-ultramicrotomy. 100-nm-thick section were cut at −120° C. using an Ultracut T/FCS (Leica) equipped with an antistatic device (Diatome) and a diamond knife (Drukker). Ultrathin sections were picked up in a mix of 1.8% methylcellulose and 2.3 M sucrose (1:1) (Liou et al., “Improving Structural Integrity of Cryosections for Immunogold Labeling,” Histochemistry and Cell Biology 106:41-58 (1996), which is hereby incorporated by reference in its entirety). Cryosections were collected on formvar-coated copper grids and incubated with Ras10 monoclonal antibody (Upstate, Charlottesville, Va.) followed by rabbit anti-mouse antibodies and then protein A gold (Slot et al., “A New Method of Preparing Gold Probes for Multiple-Labeling Cytochemistry,” Eur. J. Cell. Biol. 38:87-93 (1985), which is hereby incorporated by reference in its entirety). After labeling, the sections were treated with 1% glutaraldehyde, counterstained with uranyl acetate, and embedded in methyl cellulose-uranyl acetate (Slot et al., “Immuno-Localization of the Insulin Regulatable Glucose Transporter in Brown Adipose Tissue of the Rat,” J. Cell. Biol. 113:123-135 (1991), which is hereby incorporated by reference in its entirety). Images were acquired with a JEOL electron microscope JEM-1200 EX II at 80 kV.

a variety of tumors = details: phase I and II trials, cited from earlier work
K-Ras = assay: Metabolic labeling with [32P]orthophosphate of COS-1 cells expressing K-Ras constructs; assay type: cell-based, human; details: 100 nM bryostatin-1 for 20 min
Experimental: Twenty-four hours after transfection with various K-Ras constructs, COS-1 cells were pre-incubated at 37° C. for 4 hours in phosphate-free DMEM containing 10% dialyzed fetal calf serum (“FCS”). The medium was then replaced with phosphate-free DMEM containing 2 mCi of [^32P]orthophosphate. After 6 hours of labeling, the cells were stimulated with 100 nM bryostatin-1 for 20 min at 37° C. Jurkat cells were rinsed three times with prewarmed phosphate-free DMEM, and then incubated at 37° C. for 6 hours in phosphate-free DMEM containing 10% FBS (3:1 undialyzed:dialyzed) and 0.5 mCi/ml [^32P]orthophosphate. After incubation, the ^32P-labeled cells were rinsed with prewarmed phosphate-free DMEM, and then stimulated with either anti-CD3 (10 μg/ml) or vehicle control for 30 min at 37° C. Both types of cells were then lysed in RIPA buffer containing protease inhibitors (Roche, Basel, Switzerland) and 10 μM microcystin and 5 mM NaF. K-Ras was immunoprecipitated using agarose conjugated with Y13-259 monoclonal anti-Ras antibody (Santa Cruz Biotechnology, Inc., Santa Cruz, Calif.), analyzed by SDS-PAGE and visualized by phosphorimager.

[4] = 100 nM bryostatin-1, living cells

## Cn1cc(C2=C(c3cn(CCCSC(=N)N)c4ccccc34)C(=O)NC2=O)c2ccccc21 [Ro 31-8220]
GFP-K-Ras
  effect of inhibitor pretreatment on stimulated K-Ras translocation: completely blocked

## NCCCCNS(=O)(=O)c1ccc2c(Cl)cccc2c1 [W-13]
GFP-K-Ras
  effect of inhibitor pretreatment on stimulated K-Ras translocation: had no effect

## CCC/C=C/C=C/C(=O)O[C@H]1/C(=C/C(=O)OC)C[C@H]2C[C@H]([C@@H](C)O)OC(=O)C[C@H](O)C[C@@H]3C[C@H](OC(C)=O)C(C)(C)[C@](O)(C[C@@H]4C/C(=C/C(=O)OC)C[C@H](/C=C/C(C)(C)[C@]1(O)O2)O4)O3 [bryostatin-1]
GFP-K-Ras; [4]
  onset of translocation of GFP-K-Ras from the plasma membrane to intracellular membranes: < 1 min
  time to maximal translocation of GFP-K-Ras from the plasma membrane to intracellular membranes: 3 min
GFP-K-Ras; COS-1 cells, GFP-K-Ras12V, 3 min treatment, 10 min washout
  reversibility of effect on K-Ras localization: reversible
GFP-K-Ras; MDCK cell lines stably expressing at endogenous levels, MitoTracker Red
  association of GFP-K-Ras / GFP-H-Ras with mitochondria: stimulated rapid association of GFP-K-Ras but not GFP-H-Ras with mitochondria
K-Ras12V and Bcl-XL; Cos-1 cell, 5 min after bryostatin-1
  FRET efficiency between YFP-K-Ras12V and CFP-Bcl-XL on treated mitochondria: 17±8%
K-Ras12V and Bcl-XL; after stimulation with PKC agonist
  colocalization of CFP-K-Ras12V with YFP-Bcl-XL on outer mitochondrial membrane: colocalized with YFP-Bcl-XL
[1]
  growth of tumors established with K-Ras12V181A transformed fibroblasts: resistant
[1]; p<0.05, ANOVA
  growth of tumors established with K-Ras12V transformed fibroblasts: sensitive
[2]; K-Ras12V181A
  soft agar growth induced by K-Ras12V181A: insensitive
[2]; K-Ras12V
  K-Ras12V induced colony growth of fibroblasts in soft agar: inhibited
[3]
  induction of apoptosis in K-Ras12V versus K-Ras12V181A transformed cells: induced apoptosis to a much higher extent in cells transformed with K-Ras12V than those transformed with K-Ras12V181A
Endogenous Ras; 100 nM bryostatin-1 30 min, untreated 6.4±0.5
  10 nm gold particles per area of cytoplasm (excluding plasma membrane): 31.0±1.1 gold particles/μm^2
Endogenous Ras; bryostatin-1 treated
  gold particles associated with mitochondria: 49%
  mitochondria associated gold particles located within 30 nm of the outer mitochondrial membrane: 81%
A variety of tumors; variety of tumors
  clinical efficacy: exhibited clinical efficacy
A variety of tumors
  toxicity: minimal toxicity
K-Ras
  phosphorylation of K-Ras (32P incorporation): induced phosphorylation

## C=C1[C@@H](O)[C@@H]2O[C@]3(CC[C@H](/C=C/[C@@H](C)[C@@H]4CC(C)=C[C@@]5(O[C@H](C[C@@](C)(O)C(=O)O)CC[C@H]5O)O4)O3)CC[C@H]2O[C@@H]1[C@@H](O)C[C@H](C)[C@H]1O[C@@]2(CCCCO2)CC[C@H]1C [okadaic acid]
GFP-K-Ras; 100 nM PMA with or without 500 ng/ml ionomycin, compared with bryostatin-1
  effect on GFP-K-Ras localization (translocation/internalization): induced partial internalization
